Assay results taken from patent publication US12076411B2, “Anti-HER2 antibody-maytansine conjugates and methods of use thereof” (priority 2014, dated 2024).

Experiments:
NCI-N87 cells [1] = test: In vitro cytotoxicity, 6 d, Cell Titer-Glo (Example 5); type: cell-based; conditions: Homo sapiens, 144 h; NCI-N87, 6 d
Method: The HER2-positive gastric carcinoma cell line, NCI-N87, was obtained from ATCC and maintained in RPMI-1640 medium (Cellgro) supplemented with 10% fetal bovine serum (Invitrogen) and Glutamax (Invitrogen). 24 h prior to plating, cells were passaged to ensure log-phase growth. On the day of plating, 5000 cells/well were seeded onto 96-well plates in 90 μL normal growth medium supplemented with 10 IU penicillin and 10 μg/mL streptomycin (Cellgro). […] After 6 d, 100 μL/well of Cell Titer-Glo reagent (Promega) was added, and luminescence was measured using a Molecular Devices SpectraMax M5 plate reader. GraphPad Prism software was used for data analysis.

NCI-N87 cells [2] = test: In vitro cytotoxicity, 6 day assay, Cell Titer-Glo (Example 2); type: cell-based; conditions: Homo sapiens, 144 h; NCI-N87, 6 day assay; antibody concentrations except for the free drug
Method: (§1) NCI-N87 cells, which overexpress HER2, were used as targets for in vitro cytotoxicity in a 6 day assay.
The HER2-positive breast carcinoma cell line, NCI-N87, was obtained from ATCC and maintained in RPMI-1640 medium (Cellgro) supplemented with 10% fetal bovine serum (Invitrogen) and Glutamax (Invitrogen). 24 h prior to plating, cells were passaged to ensure log-phase growth. On the day of plating, 5000 cells/well were seeded onto 96-well plates in 90 μL normal growth medium supplemented with 10 IU penicillin and 10 μg/mL streptomycin (Cellgro). Cells were treated at various concentrations with 10 μL of diluted analytes, and the plates were incubated at 37° C. in an atmosphere of 5% CO2. After 6 d, 100 μL/well of Cell Titer-Glo reagent (Promega) was added, and luminescence was measured using a Molecular Devices SpectraMax M5 plate reader. GraphPad Prism software was used for data analysis, including IC50 calculations.

NCI-N87 cells [3] = test: In vitro cytotoxicity, 6 day assay, Cell Titer-Glo (Example 1); conditions: Homo sapiens, NCI-N87, 144 h
Method: as §1
24 h prior to plating, cells were passaged to ensure log-phase growth. On the day of plating, 5000 cells/well were seeded onto 96-well plates in 90 μL normal growth medium supplemented with 10 IU penicillin and 10 μg/mL streptomycin (Cellgro). Cells were treated at various concentrations with 10 μL of diluted analytes, and the plates were incubated at 37° C. in an atmosphere of 5% CO2. After 6 d, 100 μL/well of Cell Titer-Glo reagent (Promega, Madison, WI) was added, and luminescence was measured using a Molecular Devices SpectraMax M5 plate reader. GraphPad Prism software was used for data analysis, including IC50 calculations.

COc1cc2cc(c1Cl)N(C)C(=O)C[C@H](OC(=O)[C@H](C)N(C)C(C)=O)[C@]1(C)O[C@H]1[C@H](C)[C@@H]1C[C@@](O)(NC(=O)O1)[C@H](OC)/C=C/C=C(\C)C2 [free maytansine, maytansine]
IC50 (NCI-N87 cells [1]): 0.35 nM | IC50 (NCI-N87 cells [2]): 0.25 nM | IC50 (NCI-N87 cells [3]): 0.214 nM
